According to EP0560267B1, “Isosteric antiherpes peptide derivatives” (BOEHRINGER INGELHEIM (CANADA) LTD., priority 1992, dated 1993):
Where two headings read alike, the source gives them in different places.

Assays:
HSV-2 = assay: Inhibition of Herpes Simplex Virus (HSV-2) replication in cell culture; format: cell-based; conditions: cell culture assay of example 11
Description: Inhibition of Herpes Simplex Virus (HSV-2) Replication in Cell Culture
BHK-21/C13 cells (ATCC CCL 10) are incubated for two days in 150 cm^2 T-flasks (1.5 x 10^6 cells/flask) with alpha-MEM medium (Gibco Canada Inc., Burlington, Ontario, Canada) supplemented with 8% (v/v) fetal bovine serum (FBS, Gibco Canada Inc.). The cells are trypsinized and then transferred to fresh media in a 24 well plate to give 2.5 x 10^5 cells in 750 µL of media per well. The cells are incubated at 37° for a period of 6 h to allow them to adhere to the plate. Thereafter, the cells are washed once with 500 µL of alpha-MEM supplemented with 0.5% (v/v) FBS and then incubated with 750 µL of the same media (low serum) for 3 days. After this period of serum starvation, the low serum medium is removed and the cells are incubated in 500 µL of BBMT for 2 to 3 hours. {BBMT medium is described by P. Brazeau et al., Proc. Natl. Acad. Sci. USA, 79, 7909 (1982).} Thereafter, the cells are infected with HSV-2 (multiplicity of infection = 0.02 PFU/cell) in 100 µL of BBMT medium. (Note: The HSV-2 used was strain HG-52, see Y. Langelier and G. Buttin, J. Gen. Virol., 57, 21 (1981); the virus was stored at -80°.) Following 1 h of virus adsorption at 37°, the media is removed and the cells are washed with BBMT (3 X 250 µL). The cells in each well are incubated with or without (control) appropriate concentrations of the test agent dissolved in 200 µL of BBMT medium. After 29 h of incubation at 37°, the infected cells are harvested by first freezing the plate at -80°, followed by thawing. The cells in each well are scraped off the surface of the well with the help of the melting ice fragments. After complete thawing, the cell suspensions are collected and each well is rinsed with 150 µL of BBMT medium. The viral sample (suspension plus washing) is sonicated gently for 4 min at 4°. Cell debris are removed by centrifugation (1000 times gravity for 10 minutes at 4°). The supernatant is collected and stored at -80° until determination of viral titer.
Viral titration was performed by a modification of the colorimetric assay method of M. Langlois et al., Journal of Biological Standardization, 14, 201 (1986).
More specifically, in a similar manner as described above, BHK-21/C13 cells are trypsinized and transferred to fresh media in a 96 well microtiter plate to give 20,000 cells in 100 µL of media per well. The cells in the prepared plate are incubated at 37° for 2 h. During that time, the viral sample is thawed and sonicated gently for 15 seconds, and log dilutions of the sample are prepared (1/5 sequential: 50 µL of the sample plus 200 µL of BBMT medium, sequential dilutions being done with a multichannel pipette.
On completion of the above 2 hour incubation of the BHK-21/C13 cells, the media is replaced with alpha-MEM medium supplemented with 3% (v/v) FBS. The cells are now ready to be infected with the various sample dilutions of virus. Aliquots (50 µL) of the various dilutions are transferred into the appropriate wells of the plate. The resulting infected cells are incubated for 2 days at 37°. Then 50 µL of a 0.15% (v/v) solution of neutral red dye in Hank's Balanced Salt Solution (pH 7.3, Gibco Canada Inc.) is added to each well. The prepared plate is incubated for 45 min at 37°. Medium from each well is then aspirated and the cells are washed once with 200 µL of Hank's Balanced Salt Solution. […]

[1] = target: T1, HSV-1 ribonucleotide reductase (Human herpesvirus 1, UniProt P08543); assay: Inhibition of Herpes Simplex Virus (HSV-1) ribonucleotide reductase; format: biochemical; conditions: assay of example 10
T1 construct: HSV-1 ribonucleotide reductase (partially purified) was obtained from quiescent BHK-21/C13 cells infected with strain F HSV-1 virus; made in house; host or cells: quiescent BHK-21/C13 cells infected with HSV-1 strain F (virus-encoded enzyme, partially purified)
From the text: Inhibition of Herpes Simplex Virus (HSV-1) Ribonucleotide Reductase
• a) Preparation of Enzyme HSV-1 ribonucleotide reductase (partially purified) was obtained from quiescent BHK-21/C13 cells infected with strain F HSV-1 virus at 10 plaque forming units/cell as described by E.A. Cohen et al., J. Gen. Virol., 66, 733 (1985). • b) Assay and Results for Exemplified Peptides By following the procedure described by P. Gaudreau et al., J. Biol, Chem., 262, 12413 (1987), the assay results listed in the following Table I were obtained. The assay result for each exemplified compound of formula 1 is expressed as the concentration of the compound producing 50% of the maximal inhibition (IC50) of enzyme activity. The number of units of the enzyme preparation used in each assay was constant, based on the specific activity of the enzyme preparation. The results are relative to the activity obtained in control experiments without the test compound and represent the mean of four assays that varied less than 10% with each other.

[2] = Human alphaherpesvirus 2, Table IV, read-out: EC50
[3] = Human alphaherpesvirus 2, Table V

T1 sequence (P08543 whole entry): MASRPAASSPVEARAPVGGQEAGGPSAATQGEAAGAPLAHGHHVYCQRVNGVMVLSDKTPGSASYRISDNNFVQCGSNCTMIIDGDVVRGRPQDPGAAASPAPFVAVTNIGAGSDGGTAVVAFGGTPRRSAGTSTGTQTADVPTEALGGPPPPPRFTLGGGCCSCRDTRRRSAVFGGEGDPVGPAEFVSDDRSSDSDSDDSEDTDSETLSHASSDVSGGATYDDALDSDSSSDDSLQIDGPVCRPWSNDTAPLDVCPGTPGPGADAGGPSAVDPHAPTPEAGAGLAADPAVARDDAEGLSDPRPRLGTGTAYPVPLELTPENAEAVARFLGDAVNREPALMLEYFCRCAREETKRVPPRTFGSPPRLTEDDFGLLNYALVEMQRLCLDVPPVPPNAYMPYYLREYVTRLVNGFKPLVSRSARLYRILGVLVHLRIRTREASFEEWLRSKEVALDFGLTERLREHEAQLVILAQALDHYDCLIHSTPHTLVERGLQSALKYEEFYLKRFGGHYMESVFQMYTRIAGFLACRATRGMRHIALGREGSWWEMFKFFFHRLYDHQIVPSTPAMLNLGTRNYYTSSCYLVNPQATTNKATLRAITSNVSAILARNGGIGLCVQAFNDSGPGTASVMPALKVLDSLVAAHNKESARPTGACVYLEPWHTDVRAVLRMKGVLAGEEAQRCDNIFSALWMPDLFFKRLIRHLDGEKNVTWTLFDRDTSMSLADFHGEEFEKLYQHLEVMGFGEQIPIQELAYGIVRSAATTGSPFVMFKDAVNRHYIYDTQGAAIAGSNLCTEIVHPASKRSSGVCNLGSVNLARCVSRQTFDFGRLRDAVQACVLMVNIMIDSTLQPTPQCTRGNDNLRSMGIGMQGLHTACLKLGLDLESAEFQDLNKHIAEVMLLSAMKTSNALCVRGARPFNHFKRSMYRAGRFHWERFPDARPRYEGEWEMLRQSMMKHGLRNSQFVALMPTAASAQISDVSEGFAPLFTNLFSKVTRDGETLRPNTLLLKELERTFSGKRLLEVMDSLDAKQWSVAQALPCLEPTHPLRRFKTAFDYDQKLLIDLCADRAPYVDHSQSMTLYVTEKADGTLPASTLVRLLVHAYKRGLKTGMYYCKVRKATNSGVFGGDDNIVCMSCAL

EC50 (HSV-2; [2]) | IC50 ([1]; Table IV) | EC50 (HSV-2; [3]) | IC50 ([1]; Table V) | Structure (SMILES)
38 µM | 510 nM |  |  | CCCC(CCC)NC(=O)NC(C(=O)CC(CC(=O)C(C)(C)C)C(=O)NC(C(=O)NC(C)(C)C(C)(C)C)C1(C(=O)O)CCCC1)C(C)(C)C [Pr2CHNHC(O) / NHCMe2CMe3, Pr2CHNHC(O)-Tbg-CH2-(R)-CH(CH2C(O)CMe3)C(O)-Asp(cyPn)-NHCMe2CMe3]
14 µM | 280 nM |  |  | CCCC(CCC)NC(=O)NC(C(=O)CC(CC(=O)C(C)(C)C)C(=O)NC(C(=O)NC(C)C(C)(C)C)C1(C(=O)O)CCCC1)C(C)(C)C [Pr2CHNHC(O) / NH-(R)-CH(Me)CMe3, Pr2CHNHC(O)-Tbg-CH2-(R)-CH(CH2C(O)CMe3)C(O)-Asp(cyPn)-NH-(R)-CH(Me)CMe3]
110 µM | 270 nM |  |  | CCCC(CCC)NC(=O)NC(C(=O)CC(CC(=O)C(C)(C)C)C(=O)NC(C(=O)NN(C)C(C)(C)C)C1(C(=O)O)CCCC1)C(C)(C)C [Pr2CHNHC(O) / NH-N(Me)CMe3, Pr2CHNHC(O)-Tbg-CH2-(R)-CH(CH2C(O)CMe3)C(O)-Asp(cyPn)-NH-N(Me)CMe3]
84 µM | 220 nM |  |  | CCCC(CCC)NC(=O)NC(C(=O)CC(CC(=O)C(C)(C)C)C(=O)NC(C(=O)NNC(C)(C)C)C1(C(=O)O)CCCC1)C(C)(C)C [Pr2CHNHC(O) / NHNHCMe3, Pr2CHNHC(O)-Tbg-CH2-(R)-CH(CH2C(O)CMe3)C(O)-Asp(cyPn)-NHNHCMe3]

The next lines start with the compound.

Structure (SMILES) | EC50 (HSV-2; [2]) | IC50 ([1]; Table IV) | EC50 (HSV-2; [3]) | IC50 ([1]; Table V)
CCCC(C)(C)NC(=O)NC(C(=O)CC(CC(=O)C(C)(C)C)C(=O)NC(C(=O)NCC(C)(C)C)C1(C(=O)O)CCCC1)C(C)(C)C [Me2PrCNHC(O) / NHCH2CMe3, Me2PrCNHC(O)-Tbg-CH2-(R)-CH(CH2C(O)CMe3)C(O)-Asp(cyPn)-NHCH2CMe3] | 58 µM | 390 nM |  | 
CCCC(CCC)NC(=O)NC(C(=O)CC(CC(=O)C(C)(C)C)C(=O)NC(C(=O)NC1CCCCC1C)C1(C(=O)O)CCCC1)C(C)(C)C [Pr2CHNHC(O)-Tbg-CH2-(R)-CH(CH2C(O)CMe3)C(O)-Asp(cyPn)-cis-NH-(2-methyl-cyclohexyl)] | 75 µM | 670 nM |  | 
CCCC(CCC)NC(=O)NC(C(=O)CC(CC(=O)C(C)(C)C)C(=O)NC(C(=O)NCC(C)(C)C)C(CCC)C(=O)O)C(C)(C)C [Pr2CHNHC(O)-Tbg-CH2-(R)-CH(CH2-C(O)CMe3)C(O)-Asp{(R)-Pr}-NHCH2CMe3] |  |  | 46 µM | 250 nM
CCCC(CCC)NC(=O)NC(C(=O)CC(CC(=O)C(C)(C)C)C(=O)NC(C(=O)NC(C)C(C)(C)C)C1(C(=O)O)CCCC1)C(C)C [Pr2CHNHC(O)-Val-CH2-(R)-CH(CH2-C(O)CMe3)C(O)-Asp(cyPn)-NH-(R)-CH(Me)CMe3] |  |  | 37 µM | 220 nM
CCCC(CCC)NC(=O)NC(C(=O)CC(CC(=O)C(C)(C)C)C(=O)NC(C(=O)NN(CC)C(C)(C)C)C1(C(=O)O)CCCC1)C(C)(C)C [Pr2CHNHC(O) / NHN(Et)CMe3, Pr2CHNHC(O)-Tbg-CH2-(R)-CH(CH2C(O)CMe3)C(O)-Asp(cyPn)-NHN(Et)CMe3] | 80 µM | 220 nM |  | 
CCCC(CCC)NC(=O)NC(C(=O)CC(CC(=O)C(C)(C)C)C(=O)NC(C(=O)NCC(C)(C)CC)C1(C(=O)O)CCCC1)C(C)(C)C [Pr2CHNHC(O) / NHCH2CMe2Et, Pr2CHNHC(O)-Tbg-CH2-(R)-CH(CH2C(O)CMe3)C(O)-Asp(cyPn)-NHCH2CMe2Et] | 16 µM | 240 nM |  | 
